In publication PMC12040169 (PLOS Biology, 2025) one finds viability data, which are given here for 31 compounds.

Broadly, the viability is a read-out of living cells in per cent, often relative to untreated cells.

The nature of this data set: in vitro. The following applies: human, hela cells, % viability.

As for `Cc1ccc2c(c1)N(CCO)C(C)(C)CC2C` (stereo not shown) [CBK006567], the viability at 28.5 h, 10 µM came out at 92.1%. Consider `O=C(O)c1ccccc1C(=O)N1CCC2(CC1)NCCc1c2[nH]c2ccccc12` [CBK047235], for which the viability at 28.5 h, 10 µM was 83.9%. For the compound `CCNC(=O)c1cc2c(=O)n3cc(C)ccc3nc2n(Cc2ccco2)c1=N` [CBK265312], the viability at 28.5 h, 10 µM came out at 85.8%. Take `O=C(O)c1ccc(NS(=O)(=O)c2cccc([N+](=O)[O-])c2)cc1O` [CBK200022]: the viability at 28.5 h, 10 µM was found to be 84.8%. In the case of `O=[N+]([O-])c1cccc(S(=O)(=O)NCCSc2ccccc2)c1` [CBK267862], the viability at 28.5 h, 10 µM came to 94.1%. Take `COc1cc(Cl)nnc1Cl` [CBK018956]: the viability at 28.5 h, 10 µM is 108%. Consider `O=C(O)C1CCCCC1C(=O)N1CCN(C(c2ccccc2)c2ccccc2)CC1` (stereo not shown) [CBK265480], for which the viability at 28.5 h, 10 µM is 90.7%.

Consider `Cc1nn(CCNC(=O)C(c2ccc(F)cc2)N(C)C)c(C)c1C` (stereo not shown) [CBK282009], for which the viability at 28.5 h, 10 µM came out at 89.2%. Take `O=C(c1cc(-c2cccs2)[nH]n1)N1CCCCCC1` [CBK288108]: the viability at 28.5 h, 10 µM was determined as 92.1%. Still for that read-out and setting: with `COCC(=O)N1CCc2sccc2C1c1ccc(NCc2ccc(C)o2)cc1` (stereo not shown) [CBK286447] the figure was 96.3%; with `CCNC(=O)Nc1cc2cccnc2nc1-c1ccc2c(c1)OCCCO2` [CBK070695], 97.1%. For `COc1ccc2c(c1)C1(CC(=O)N(CC3CCCCC3)C1=O)C(=O)N2C` (stereo not shown) [CBK075201], the viability at 28.5 h, 10 µM was 100%. The same measure, in the same setting: with `Cc1cc(COc2nccnc2N2CCN(CCCn3c(=O)[nH]c4ccccc43)CC2)no1` [CBK084199] the figure was 107%. Consider `COc1ccc(Cn2nc(C(=O)NCc3ccco3)c3ccccc32)cc1` [CBK047883], for which, for the setting “bulk resorufin, single well”, the viability at 28.5 h, 10 µM was determined as 63.3%.

For `CCCc1nnc2sc(C3CCCN(C(C)C)C3)nn12` (stereo not shown) [CBK306781], the viability at 28.5 h, 10 µM was determined as 85.3%. Turning to `O=C(CC(NC(=O)c1ccccc1)c1ccccc1)Nc1cccc2ccccc12` (stereo not shown) [CBK263901], the viability at 28.5 h, 10 µM stood at 98.9%.

With `CC(C)NC(=O)c1cc([C@H]2CC[C@H](CNC(=O)Cn3cccn3)CC2)nc2ccccc12` [CBK285859], the viability at 28.5 h, 10 µM was 112%.

Turning to `CCn1nc(C(C)C)cc1C(=O)N1CC2(CCNCC2)CC1C(=O)O` (stereo not shown) [CBK307179], the viability at 28.5 h, 10 µM came out at 90.9%. On to `CCc1nn(CC(=O)N(C)C)c(=O)c2cc3sc(C)cc3n12` [CBK284102], for which the viability at 28.5 h, 10 µM amounted to 110%.

Take `Cc1cccc(NC(=O)c2ccc3n[nH]c(=S)n3c2)c1` [CBK288389]: the viability at 28.5 h, 10 µM was 88%.

On to `O=C(C1CC1)N1CC2CCCC(C1)C2(O)c1cccnc1F` (stereo not shown) [CBK282889], for which the viability at 28.5 h, 10 µM is 99.6%. `CC(C)(C)NS(=O)(=O)c1ccc(OCC(=O)O)cc1` [CBK287077]: the viability at 28.5 h, 10 µM came to 100%. For the compound `COc1ccc(CCN2C(=O)CC(N3CCN(c4ccccc4)CC3)C2=O)cc1OC` (stereo not shown) [CBK262354], the viability at 28.5 h, 10 µM amounted to 106%.

For `COc1ccccc1-c1noc(CSc2nnc(-c3ccccc3)n2-c2ccc(C)c(C)c2)n1` [CBK269058], the viability at 28.5 h, 10 µM was 105%. In the case of `O=C(O)Cc1ccc(NC(=S)Nc2ccc([N+](=O)[O-])cc2)cc1` [CBK266959], the viability at 28.5 h, 10 µM was found to be 98.7%.

As to `CC(C)c1nc(CC(=O)NCCC(=O)N2CCCc3ccccc32)cs1` [CBK305437], the viability at 28.5 h, 10 µM is 98.1%. Take `CCOC(=O)c1ccc(Cn2c(-c3ccccc3)nnc2-c2ccccc2)o1` [CBK267691]: the viability at 28.5 h, 10 µM was found to be 87.8%.

With `COC(=O)c1ccc(NC(=O)N2CCCCC2CCn2ccnc2)cc1` (stereo not shown) [CBK307195], the viability at 28.5 h, 10 µM amounted to 86.8%.

Consider `COCc1cccc(-c2ccc(C(=O)N(C)CCN(C)C)c(N(C)C)n2)c1` [CBK106091], for which the viability at 28.5 h, 10 µM is 103%. For the compound `O=C(O)c1ccc(NC(=O)c2cccc(NC(=O)c3cccc4ccccc34)c2)cc1` [CBK299823], the viability at 28.5 h, 10 µM is 101%. `COCCNS(=O)(=O)c1ccc(Br)c(C(=O)N(C)Cc2cnn(C)c2)c1` [CBK304795]: the viability at 28.5 h, 10 µM turned out to be 96.6%.
